Reference: ChEMBL document CHEMBL5214919, “Discovery of Novel BRD4 Ligand Scaffolds by Automated Navigation of the Fragment Chemical Space” (J Med Chem, 2021)

Key:
[1] = biological target: T1, Bromodomain-containing protein 4 (Homo sapiens, UniProt O60885); test: Binding affinity to BRD4 (unknown origin) expressed in Escherichia coli BL21 (DE3) assessed as thermal stabilization at 10 uM by SYPRO orange dye based DSF assay
[2] = biological target: T1, Bromodomain-containing protein 4; test: Inhibition of BRD4 (unknown origin) expressed in Escherichia coli BL21 (DE3) using [Lys(Ac)5/8/12/16]-histone H4 (1 to 21residues)-GGK as substrate incubated for 30 mins by TR-FRET assay

ΔTm [1] | IC50 [2] | Structure (SMILES)
– | 644 µM | Oc1ccccc1-n1c(O)nnc1S
2.6 °C | – | Cc1nonc1-c1cc2ccccc2[nH]1
0.8 °C | 79 µM | Cc1cc(Cl)ccc1O[C@H](C)c1nnc(N)s1
0.9 °C | – | COc1ccc(CNC(=O)CSc2nnc(N)s2)cc1
2.4 °C | 491 µM | Oc1ccc(Cl)cc1Nc1ncnc2nc[nH]c12
3.1 °C | – | Nc1noc2c1c(=O)[nH]c1ccccc12
1.6 °C | – | COc1cccc(Cc2nnc(N)s2)c1
1.8 °C | 30 µM | Cc1cc(SCc2c(C)noc2C)ncn1

Second part, the molecule before the results:

Structure (SMILES) | ΔTm [1] | IC50 [2]
Cc1nnc2n1C[C@@H](NC(=O)Cn1cnnn1)CC2 | 2.9 °C | –
CCc1nnc2scc(-c3ccccc3)n12 | 3.3 °C | –
Cc1noc(C)c1CSc1nnc(C)n1N | – | 191 µM
Cc1noc(C)c1C(=O)Nc1nnc(C2CC2)s1 | – | 86 µM
Cc1noc(N)c1-c1ccccc1 | 4.55 °C | 91 µM
CCCc1nnc(NC(=O)c2c(C)noc2C)s1 | 0.9 °C | –
Cc1nc(C#N)c(NCc2csnn2)o1 | 3.4 °C | –
Cc1n[nH]c2nnc(N)c-2c1C | 0.9 °C | –
